How the values were obtained:
[1] = test system: MDA-MB-231 human breast cancer cells; assay: Cultrex BME cell invasion assay, HGF-induced; type: cell-based; conditions: 24 h treatment
Procedure: FIG. 6. (A) Effect of HVS on HGF-induced migration of the highly metastatic MDA-MB-231 human breast cancer cells in wound healing assay. […] Vertical bars indicate the percentage of wound closure at 24 h after wounding, calculated relative to the wound distance at zero time±SEM of N=6 in each treatment group. SU11274 and (−)-oleocanthal were used as positive controls at 10 μM. Right panel represents photomicrographs of wound healing assay showing HVS treatment at three different concentrations (1.25, 2.5, and 5 μM) blocked the migration of MDA-MB-231 cells in response to HGF stimulation, as compared to DMSO as a vehicle control. (B) Effect of HVS on HGF-induced cell invasion of the highly aggressive MDA-MB-231 human breast cancer cells using Cultrex® BME cell invasion assay. The cells were treated with different concentrations of HVS for 24 h. Vertical bars indicate the percentage of cells invading the basement membrane at the end of treatment period±SEM of N=3 in each treatment group. (−)-Oleocanthal was used as a positive control at 20 μM dose.*P<0.05 as compared with vehicle-treated control. (C) Effect of HVS on HGF-induced scattering of the DU145 human prostate cancer cells in 2D monolayer cultures, compared to DMSO as vehicle control. Cells were treated with indicated concentrations of HVS for 30 minutes in serum-free media. […]

DU145 spheroids = assay: 3D spheroid growth, IncuCyte; type: cell-based, human; conditions: 72 hours
Procedure: FIG. 9B: DU145 cells were grown in 10% FBS DMEM. Cells were collected after trypsinization and resuspended in phenol-red free DMEM with 10% FBS. Cells were labeled with Cell-Tracker Red (Life Technologies) for 5 minutes. After labeling cells were washed with PBS and transfer into 96-well Corning 7007 ULA round bottom plates at 1,000 cells/well in 100 μl phenol-red free media with 10% FBS and 5% Matrigel. […] Spheroids were grown at 37° C. and 5% CO2 in IncuCyte ZOOM (Essen Bioscience). Images were acquired every 4 h for a period of 72 h post-treatment and software analysis was design to identify the red object in the well. The data were expressed as fold increase in spheroids size at the end of the treatment using the “average red object area in the well” as determined by the IncuCyte software analysis. FIG. 9C: Visually representative spheroids that are quantitated in FIG. 9B.
To determine the effectiveness of these compounds under 3D growth conditions which more accurately predict effectiveness of new drugs in humans, DU145 spheroids were formed and allowed to grow for 72 hours. Images were recorded every 4 hours using the Incucyte platform. […] Compounds 9 and 10, at 10 micromolar reduced spheroid growth by about 50 percent (not shown).

ALK = ALK (Homo sapiens, UniProt Q9UM73); assay: SelectScreen Kinase Profiling; type: biochemical; conditions: read-out: Mean inhibition at 10 μM of HVS (%)
Procedure: (§1) HVS was evaluated against a cross-section of tyrosine kinases (TKs), which are known to be structurally related and oncogenically relevant to c-Met, in order to understand its selectivity profile. A panel of 15 TKs was selected for biochemical analysis through the SelectScreen Kinase Profiling Service (Invitrogen, CA). In this assay, the results are expressed as % inhibition at a 10 μM dose (see Table I below).
as §1, with “Table I (Above) HVS” for “HVS”, “profile (Table 1).” for “profile.”, “(Table 1).” for “(see Table I below).”

EGFR (ERbB1) = EGFR (ERbB1) (Homo sapiens, UniProt P00533); assay: SelectScreen Kinase Profiling; type: biochemical; conditions: read-out: Mean inhibition at 10 μM of HVS (%)
Procedure: as §1
as §1, with “Table I (Above) HVS” for “HVS”, “profile (Table 1).” for “profile.”, “(Table 1).” for “(see Table I below).”

FGFR1 = FGFR1 (Homo sapiens, UniProt P11362); assay: SelectScreen Kinase Profiling; type: biochemical; conditions: read-out: Mean inhibition at 10 μM of HVS (%)
Procedure: as §1
as §1, with “Table I (Above) HVS” for “HVS”, “profile (Table 1).” for “profile.”, “(Table 1).” for “(see Table I below).”

FLT1 (VEGFR1) = FLT1 (VEGFR1) (Homo sapiens, UniProt P17948); assay: SelectScreen Kinase Profiling; type: biochemical; conditions: read-out: Mean inhibition at 10 μM of HVS (%)
Procedure: as §1
as §1, with “Table I (Above) HVS” for “HVS”, “profile (Table 1).” for “profile.”, “(Table 1).” for “(see Table I below).”

HER2 (ERbB2) = HER2 (ERbB2) (Homo sapiens, UniProt P04626); assay: SelectScreen Kinase Profiling; type: biochemical; conditions: read-out: Mean inhibition at 10 μM of HVS (%)
Procedure: as §1
as §1, with “Table I (Above) HVS” for “HVS”, “profile (Table 1).” for “profile.”, “(Table 1).” for “(see Table I below).”

HER4 (ERbB4) = HER4 (ERbB4) (Homo sapiens, UniProt Q15303); assay: SelectScreen Kinase Profiling; type: biochemical; conditions: read-out: Mean inhibition at 10 μM of HVS (%)
Procedure: as §1
as §1, with “Table I (Above) HVS” for “HVS”, “profile (Table 1).” for “profile.”, “(Table 1).” for “(see Table I below).”

IGF1R = IGF1R (Homo sapiens, UniProt P08069); assay: SelectScreen Kinase Profiling; type: biochemical
Procedure: as §1
as §1, with “Table I (Above) HVS” for “HVS”, “profile (Table 1).” for “profile.”, “(Table 1).” for “(see Table I below).”

KDR (VEGFR2) = KDR (VEGFR2) (Homo sapiens, UniProt P35968); assay: SelectScreen Kinase Profiling; type: biochemical; conditions: read-out: Mean inhibition at 10 μM of HVS (%)
Procedure: as §1
as §1, with “Table I (Above) HVS” for “HVS”, “profile (Table 1).” for “profile.”, “(Table 1).” for “(see Table I below).”

KIT = KIT (Homo sapiens, UniProt P10721); assay: SelectScreen Kinase Profiling; type: biochemical; conditions: read-out: Mean inhibition at 10 μM of HVS (%)
Procedure: as §1
as §1, with “Table I (Above) HVS” for “HVS”, “profile (Table 1).” for “profile.”, “(Table 1).” for “(see Table I below).”

PDGFRβ = PDGFRβ (Homo sapiens, UniProt P09619); assay: SelectScreen Kinase Profiling; type: biochemical; conditions: read-out: Mean inhibition at 10 μM of HVS (%)
Procedure: as §1
as §1, with “Table I (Above) HVS” for “HVS”, “profile (Table 1).” for “profile.”, “(Table 1).” for “(see Table I below).”

ROS1 = ROS1 (Homo sapiens, UniProt P08922); assay: SelectScreen Kinase Profiling; type: biochemical; conditions: read-out: Mean inhibition at 10 μM of HVS (%)
Procedure: as §1
as §1, with “Table I (Above) HVS” for “HVS”, “profile (Table 1).” for “profile.”, “(Table 1).” for “(see Table I below).”

Chain of IGF1R (P08069 31-1367): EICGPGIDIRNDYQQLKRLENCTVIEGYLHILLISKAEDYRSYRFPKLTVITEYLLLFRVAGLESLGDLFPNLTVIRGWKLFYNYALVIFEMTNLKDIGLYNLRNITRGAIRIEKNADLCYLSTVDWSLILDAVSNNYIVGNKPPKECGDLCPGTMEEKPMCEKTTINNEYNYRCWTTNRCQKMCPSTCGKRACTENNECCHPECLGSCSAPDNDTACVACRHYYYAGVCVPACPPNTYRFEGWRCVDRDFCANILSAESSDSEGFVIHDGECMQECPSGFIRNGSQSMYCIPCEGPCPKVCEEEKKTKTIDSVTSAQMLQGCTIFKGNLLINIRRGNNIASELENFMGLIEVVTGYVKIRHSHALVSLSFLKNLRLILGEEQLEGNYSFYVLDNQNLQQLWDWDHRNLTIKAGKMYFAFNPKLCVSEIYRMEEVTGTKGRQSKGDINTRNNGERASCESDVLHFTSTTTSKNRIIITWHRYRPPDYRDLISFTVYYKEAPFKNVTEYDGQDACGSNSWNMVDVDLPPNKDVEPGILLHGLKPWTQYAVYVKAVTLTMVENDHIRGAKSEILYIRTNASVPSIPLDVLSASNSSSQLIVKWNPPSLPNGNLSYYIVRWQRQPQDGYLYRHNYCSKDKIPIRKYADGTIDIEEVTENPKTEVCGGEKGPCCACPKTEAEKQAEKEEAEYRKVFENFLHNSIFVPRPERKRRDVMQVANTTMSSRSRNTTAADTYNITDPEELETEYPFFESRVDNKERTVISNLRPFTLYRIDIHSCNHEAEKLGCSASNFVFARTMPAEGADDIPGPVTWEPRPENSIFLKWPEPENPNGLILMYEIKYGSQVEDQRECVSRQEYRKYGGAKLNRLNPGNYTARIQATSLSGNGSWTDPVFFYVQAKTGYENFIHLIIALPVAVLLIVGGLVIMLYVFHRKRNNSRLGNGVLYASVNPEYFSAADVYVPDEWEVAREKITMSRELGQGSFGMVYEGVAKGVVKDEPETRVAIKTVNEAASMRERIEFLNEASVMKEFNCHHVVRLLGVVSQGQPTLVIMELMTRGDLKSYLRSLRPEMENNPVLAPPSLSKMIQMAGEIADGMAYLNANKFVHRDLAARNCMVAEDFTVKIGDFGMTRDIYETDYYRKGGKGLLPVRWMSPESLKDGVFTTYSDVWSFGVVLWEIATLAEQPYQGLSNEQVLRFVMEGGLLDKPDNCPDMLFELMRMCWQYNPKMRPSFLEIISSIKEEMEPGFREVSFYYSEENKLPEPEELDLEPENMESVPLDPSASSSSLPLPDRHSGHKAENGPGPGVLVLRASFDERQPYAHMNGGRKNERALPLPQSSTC
Chain of KIT (P10721 26-976): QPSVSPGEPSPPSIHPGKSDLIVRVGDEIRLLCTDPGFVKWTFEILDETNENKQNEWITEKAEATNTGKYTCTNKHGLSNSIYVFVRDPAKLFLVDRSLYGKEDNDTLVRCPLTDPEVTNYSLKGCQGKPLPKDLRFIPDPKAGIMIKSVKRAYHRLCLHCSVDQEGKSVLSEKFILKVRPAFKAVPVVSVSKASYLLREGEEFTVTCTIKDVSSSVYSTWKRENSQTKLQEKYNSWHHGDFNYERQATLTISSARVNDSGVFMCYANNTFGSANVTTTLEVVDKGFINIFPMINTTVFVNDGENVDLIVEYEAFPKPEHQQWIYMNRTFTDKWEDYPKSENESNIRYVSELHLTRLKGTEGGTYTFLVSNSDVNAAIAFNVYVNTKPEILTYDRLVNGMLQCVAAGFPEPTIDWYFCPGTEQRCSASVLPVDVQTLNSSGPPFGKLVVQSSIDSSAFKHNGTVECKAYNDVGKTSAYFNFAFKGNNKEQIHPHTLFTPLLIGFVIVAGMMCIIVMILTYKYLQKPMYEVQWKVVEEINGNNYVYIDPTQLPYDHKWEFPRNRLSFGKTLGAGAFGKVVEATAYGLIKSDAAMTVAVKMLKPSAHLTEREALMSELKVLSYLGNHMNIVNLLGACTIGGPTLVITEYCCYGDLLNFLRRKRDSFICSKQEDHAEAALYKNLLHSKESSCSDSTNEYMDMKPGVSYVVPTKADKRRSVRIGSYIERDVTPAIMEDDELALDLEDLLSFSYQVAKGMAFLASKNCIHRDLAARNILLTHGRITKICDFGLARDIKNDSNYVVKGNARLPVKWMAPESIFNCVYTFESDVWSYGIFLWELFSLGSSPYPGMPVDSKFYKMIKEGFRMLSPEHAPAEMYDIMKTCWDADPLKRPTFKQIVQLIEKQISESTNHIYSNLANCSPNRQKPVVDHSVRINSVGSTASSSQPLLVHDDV
Chain of FLT1 (VEGFR1) (P17948 27-1338): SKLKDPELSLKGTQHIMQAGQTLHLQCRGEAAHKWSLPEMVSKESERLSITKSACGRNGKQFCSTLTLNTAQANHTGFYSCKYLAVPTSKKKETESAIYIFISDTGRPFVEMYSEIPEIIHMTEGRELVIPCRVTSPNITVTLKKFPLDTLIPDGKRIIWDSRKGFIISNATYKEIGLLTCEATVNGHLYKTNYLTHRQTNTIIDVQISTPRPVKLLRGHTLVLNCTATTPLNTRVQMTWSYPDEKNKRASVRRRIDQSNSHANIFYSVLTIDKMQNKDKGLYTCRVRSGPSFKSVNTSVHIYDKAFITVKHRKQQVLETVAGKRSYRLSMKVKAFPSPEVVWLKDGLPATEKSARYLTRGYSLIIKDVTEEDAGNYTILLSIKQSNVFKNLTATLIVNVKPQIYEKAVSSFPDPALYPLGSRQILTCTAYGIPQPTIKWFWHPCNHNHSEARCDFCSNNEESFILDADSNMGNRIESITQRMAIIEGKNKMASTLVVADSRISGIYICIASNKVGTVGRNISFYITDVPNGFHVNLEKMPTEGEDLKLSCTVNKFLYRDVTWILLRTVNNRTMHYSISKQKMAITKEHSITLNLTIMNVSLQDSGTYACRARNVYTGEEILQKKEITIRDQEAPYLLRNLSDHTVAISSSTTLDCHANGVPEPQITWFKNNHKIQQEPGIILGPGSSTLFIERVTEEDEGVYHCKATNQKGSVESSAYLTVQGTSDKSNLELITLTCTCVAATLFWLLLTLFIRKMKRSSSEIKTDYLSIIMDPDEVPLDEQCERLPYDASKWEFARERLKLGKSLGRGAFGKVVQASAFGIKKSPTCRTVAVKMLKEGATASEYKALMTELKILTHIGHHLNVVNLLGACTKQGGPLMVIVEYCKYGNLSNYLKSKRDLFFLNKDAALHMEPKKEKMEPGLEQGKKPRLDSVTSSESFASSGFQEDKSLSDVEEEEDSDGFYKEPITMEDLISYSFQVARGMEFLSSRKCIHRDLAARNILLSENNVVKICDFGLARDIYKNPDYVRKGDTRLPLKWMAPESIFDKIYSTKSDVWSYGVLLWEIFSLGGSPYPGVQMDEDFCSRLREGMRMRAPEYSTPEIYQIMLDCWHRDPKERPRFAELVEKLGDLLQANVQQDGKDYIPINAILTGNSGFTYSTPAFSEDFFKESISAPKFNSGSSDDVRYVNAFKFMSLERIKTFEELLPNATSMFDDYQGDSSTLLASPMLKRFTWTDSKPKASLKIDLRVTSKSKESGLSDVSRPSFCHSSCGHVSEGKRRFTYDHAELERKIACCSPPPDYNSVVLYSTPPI
Chain of HER2 (ERbB2) (P04626 23-1255): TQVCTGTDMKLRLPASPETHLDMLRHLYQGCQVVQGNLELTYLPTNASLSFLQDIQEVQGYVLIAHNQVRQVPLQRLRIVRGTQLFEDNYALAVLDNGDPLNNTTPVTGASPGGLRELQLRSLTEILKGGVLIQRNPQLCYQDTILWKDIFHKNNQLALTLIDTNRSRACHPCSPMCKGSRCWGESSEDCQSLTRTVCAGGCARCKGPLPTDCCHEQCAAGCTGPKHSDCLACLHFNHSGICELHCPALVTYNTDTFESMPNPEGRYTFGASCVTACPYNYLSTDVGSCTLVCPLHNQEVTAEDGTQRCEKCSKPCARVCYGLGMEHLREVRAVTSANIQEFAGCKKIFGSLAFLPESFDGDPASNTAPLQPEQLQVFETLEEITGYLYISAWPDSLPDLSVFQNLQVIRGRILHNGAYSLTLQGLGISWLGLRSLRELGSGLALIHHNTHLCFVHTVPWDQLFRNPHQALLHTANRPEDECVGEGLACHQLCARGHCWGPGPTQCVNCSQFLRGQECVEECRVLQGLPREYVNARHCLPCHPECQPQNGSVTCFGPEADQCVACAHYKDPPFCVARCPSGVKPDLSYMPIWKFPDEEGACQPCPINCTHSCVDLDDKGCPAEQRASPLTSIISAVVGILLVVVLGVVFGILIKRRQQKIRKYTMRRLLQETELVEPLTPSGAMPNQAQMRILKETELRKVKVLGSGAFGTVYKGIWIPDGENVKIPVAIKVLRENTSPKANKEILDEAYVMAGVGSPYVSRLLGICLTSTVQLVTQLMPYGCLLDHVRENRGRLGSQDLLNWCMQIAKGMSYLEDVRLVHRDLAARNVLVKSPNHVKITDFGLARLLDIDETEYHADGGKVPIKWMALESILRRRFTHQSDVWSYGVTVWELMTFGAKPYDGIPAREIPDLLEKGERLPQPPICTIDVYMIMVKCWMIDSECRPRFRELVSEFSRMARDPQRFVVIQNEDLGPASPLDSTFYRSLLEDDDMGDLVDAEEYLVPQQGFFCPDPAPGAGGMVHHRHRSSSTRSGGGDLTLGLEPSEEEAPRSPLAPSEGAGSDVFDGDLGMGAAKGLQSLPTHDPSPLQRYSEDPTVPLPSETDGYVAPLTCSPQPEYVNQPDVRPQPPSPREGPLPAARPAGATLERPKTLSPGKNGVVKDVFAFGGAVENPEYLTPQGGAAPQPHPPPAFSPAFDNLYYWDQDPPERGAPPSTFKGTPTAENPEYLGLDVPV

`COc1cc(CCOC(=O)/C=C/c2cc(OC)c(O)c(OC)c2)ccc1O` [Compound 8, (E)-4-hydroxy-3-methoxyph-ethyl 3-(4-hydroxy-3,5-dimethoxyphenyl) acrylate] was tested, and the HGF-induced invasion [1] was “appears to inhibit”, the “reduction of spheroid growth” value (DU145 spheroids; 10 micromolar) was “over 80%” and the “lowest concentration blocking spheroid growth” value (DU145 spheroids) was ≤ 1 µM. For the same compound, the inhibition at 10 µM (ALK) was 21%, the inhibition at 10 µM (EGFR (ERbB1)) was 7% and the inhibition at 10 µM (FGFR1) was 50%. It also gave an inhibition at 10 µM (FLT1 (VEGFR1)) of 9%, an inhibition at 10 µM (HER2 (ERbB2)) of 4% and an inhibition at 10 µM (HER4 (ERbB4)) of 7%. For the same compound, the “Mean inhibition at 10 μM of HVS (%)” value (IGF1R) was “no observed inhibition”, the inhibition at 10 µM (IGF1R; read-out: Mean inhibition at 10 μM of HVS (%)) was -5% and the inhibition at 10 µM (KDR (VEGFR2)) was 20%. The inhibition at 10 µM (KIT) was -3%, the inhibition at 10 µM (PDGFRβ) was 14% and the inhibition at 10 µM (ROS1) was 24%.
